Data set [1] can be described thus: AUC (0 to infinity) in mouse at 25 mg/kg, po. Details: time infinity, dose 25 mg/kg, route oral. The following applies: plasma. Format: ADME, organism-based.
Data set [2] can be described thus: Cmax in mouse at 25 mg/kg, po. Format: ADME, organism-based. Details: dose 25 mg/kg, route oral. The following applies: in vivo.
A short description of data set [3]: Permeability across human Caco2 cells. The format is ADME, cell-based. The note with it: Caco-2, read-out: permeability. Background: Passage across Caco-2 layers is used to estimate intestinal permeability.
The target of data set [4] is Serine/threonine-protein kinase B-raf (Homo sapiens, UniProt P15056, V600E). Briefly: Inhibition of B-Raf V600E mutant.
Chain of Serine/threonine-protein kinase B-raf (P15056 2-766 V600E limits assumed): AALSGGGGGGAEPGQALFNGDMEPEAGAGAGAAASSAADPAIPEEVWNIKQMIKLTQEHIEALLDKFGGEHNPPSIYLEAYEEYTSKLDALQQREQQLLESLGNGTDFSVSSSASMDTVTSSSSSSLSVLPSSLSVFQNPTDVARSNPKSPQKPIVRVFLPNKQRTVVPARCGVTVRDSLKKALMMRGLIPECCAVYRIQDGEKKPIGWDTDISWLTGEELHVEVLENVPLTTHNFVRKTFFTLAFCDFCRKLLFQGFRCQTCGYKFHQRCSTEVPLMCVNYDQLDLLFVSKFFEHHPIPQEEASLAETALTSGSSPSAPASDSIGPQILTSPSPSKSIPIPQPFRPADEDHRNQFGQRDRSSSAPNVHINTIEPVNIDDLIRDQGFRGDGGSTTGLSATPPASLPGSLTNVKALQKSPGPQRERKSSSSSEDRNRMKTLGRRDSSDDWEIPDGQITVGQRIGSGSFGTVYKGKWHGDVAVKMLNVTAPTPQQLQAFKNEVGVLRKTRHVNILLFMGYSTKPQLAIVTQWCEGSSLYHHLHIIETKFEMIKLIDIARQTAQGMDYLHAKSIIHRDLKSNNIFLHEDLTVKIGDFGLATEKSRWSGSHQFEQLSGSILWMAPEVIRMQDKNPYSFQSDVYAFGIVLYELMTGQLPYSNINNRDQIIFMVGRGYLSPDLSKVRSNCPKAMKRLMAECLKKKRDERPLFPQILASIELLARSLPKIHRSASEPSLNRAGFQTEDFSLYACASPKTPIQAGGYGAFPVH

The structures appear in SMILES notation.

For orientation: AUC(0-inf) means the area under the concentration-time curve extrapolated to infinity. For orientation: Cmax means the highest concentration seen after dosing. By IC50 is commonly meant the concentration that gives 50% inhibition.

In turn, `Clc1ccc2[nH]ncc2c1Nc1c(-c2ncccn2)oc2cnccc12` yielded an AUC(0-inf) in data set [1] of 17000 ng·h/mL. The compound also had a Cmax in data set [2] of 3730 ng/mL. Besides, in data set [3], the Papp was found to be 2 ×10⁻⁶ cm/s. Half-maximal inhibition in data set [4] (IC50) was put at 240 nM. In data set [4], `NCCCc1n[nH]c2c(Cl)ccc(Nc3c(-c4ncccn4)oc4cnccc34)c12` returned an IC50 of 4.3 nM. The same measure, in the same setting: as for `CN(C)/C=C/NC(=O)c1oc2cnccc2c1Nc1ccc2c(O)cccc2c1`, the figure is 5 nM.

`c1cnc(-c2oc3cnccc3c2Nc2ccc3c(c2)Cc2c[nH]nc2-3)nc1` registered an AUC(0-inf) in data set [1] of 10400 ng·h/mL. In data set [2], this compound displayed a Cmax of 2220 ng/mL. For the same compound, the Papp in data set [3] was over 8 ×10⁻⁶ cm/s. The same compound had an IC50 in data set [4] of 4 nM. For the compound `Cc1ccc(Nc2c(-c3ncccn3)oc3cnccc23)c2cn[nH]c12`, in data set [4], half-maximal inhibition (IC50) required 2.4 nM. As to `CCOC(=O)c1oc2cnccc2c1Nc1ccc2c(c1)CC/C2=N/O`, in data set [4], the half-inhibitory concentration (IC50) was under 2 nM. Compound `CCc1n[nH]c2c(Cl)ccc(Nc3c(-c4ncccn4)oc4cnccc34)c12` gave a 50% inhibitory concentration (IC50) in data set [4] of 0.8 nM. For `Clc1cc(Nc2c(-c3ncccn3)oc3cnccc23)c2cn[nH]c2c1`, the IC50 in data set [4] is 5.7 nM. Compound `O=C(Nc1ncccn1)c1oc2cnccc2c1Nc1ccc(Cl)c(O)c1` yielded an IC50 in data set [4] of 1.6 nM. The same measure, in the same setting: then `OCCCc1n[nH]c2c(Cl)ccc(Nc3c(-c4ncccn4)oc4cnccc34)c12`, with 0.8 nM; and `CC(C)NC(=O)c1oc2cnccc2c1Nc1ccc2c(O)cccc2c1`, with 1.4 nM; and `CCOC(=O)c1oc2cnccc2c1Nc1ccc2c(O)cccc2c1`, with 1.1 nM. In data set [4], `CCOC(=O)c1oc2cnccc2c1Nc1ccc2c(N)cccc2c1` yielded a half-inhibitory concentration (IC50) of 52 nM. Same read-out and setting: as for `CN1CCN(Cc2cnc(-c3oc4cnccc4c3Nc3ccc4c(O)cccc4c3)nc2)CC1`, the figure is 2 nM. The same measure, in the same setting: then `CC(C)NC(=O)c1oc2cnccc2c1Nc1ccc(Cl)c2[nH]ncc12`, with 2.7 nM; and `CCOC(=O)c1oc2cnccc2c1Nc1ccc2c(c1)CCC2=O`, with 93 nM; and `CC(C)NC(=O)c1oc2cnccc2c1Nc1ccc2c(c1)CN/C2=N\O`, with 5.2 nM.

In turn, `Oc1cccc2cc(Nc3c(-c4ncccn4)oc4cnccc34)ccc12` came in with an IC50 in data set [4] of 1 nM. Turning to `CN/C=C/NC(=O)c1oc2cnccc2c1Nc1ccc2c(c1)Cc1c[nH]nc1-2`, half-maximal inhibition in data set [4] (IC50) required 42.9 nM.

On to `Cc1cc(Nc2c(-c3ncccn3)oc3cnccc23)c2cn[nH]c2c1Cl`, for which the concentration for half-maximal inhibition (IC50) in data set [4] stood at 0.3 nM. For the compound `CC(C)NC(=O)c1oc2cnccc2c1Nc1ccc2c(c1)Cc1c[nH]nc1-2`, in data set [4], the IC50 was 38 nM. Still for that read-out and setting: as for `CC(C)NC(=O)c1oc2cnccc2c1Nc1ccc(Cl)c(O)c1`, the figure is 4 nM. Same read-out and setting: then `CCOC(=O)c1oc2cnccc2c1Nc1ccc2c(O)c(F)ccc2c1`, with 3 nM.

In data set [4], `O=C1CCc2cc(Nc3c(-c4ncccn4)oc4cnccc34)ccc21` showed a half-inhibitory concentration (IC50) of 16 nM.

As to `Clc1ccc(Nc2c(-c3ncccn3)oc3cnccc23)c2cn[nH]c12`, the Papp in data set [3] was under 2 ×10⁻⁶ cm/s. In addition, in data set [4], the IC50 turned out to be 4.2 nM. On to `O/N=C1\NCc2cc(Nc3c(-c4ncccn4)oc4cnccc34)ccc21`, for which half-maximal inhibition in data set [4] (IC50) required 0.5 nM.

For `Fc1ccc(Nc2c(-c3ncccn3)oc3cnccc23)c2cn[nH]c12`, in data set [4], the IC50 came to 2 nM. Still for that read-out and setting: then `CCOC(=O)c1oc2cnccc2c1Nc1cnc2ccccc2c1`, with 30 nM; and `CCOC(=O)c1oc2cnccc2c1Nc1ccc(Cl)c(O)c1`, with 2.3 nM. In data set [4], `c1cnc(-c2oc3cnccc3c2Nc2cccc3[nH]ncc23)nc1` showed an IC50 of 14 nM. As to `CCOC(=O)c1oc2cnccc2c1Nc1ccc2ccccc2c1`, 179 nM corresponded to half-maximal inhibition in data set [4] (IC50).

These data come from ChEMBL document CHEMBL1667830, “Non-oxime inhibitors of B-Raf(V600E) kinase” (Bioorg Med Chem Lett, 2011).
